Measurements reported in patent publication US20120129730A1, “GENERATION OF COMPOUND LIBRARIES UTILIZING MOLECULAR IMPRINTS INCLUDING A DOUBLE OR ANTI-IDIOTYPIC APPROACH” (KLAUS MOSBACH, priority 2001, published 2012).

Biological target: T1, tissue kallikrein (UniProt P00752)
T1 sequence (P00752 1-246): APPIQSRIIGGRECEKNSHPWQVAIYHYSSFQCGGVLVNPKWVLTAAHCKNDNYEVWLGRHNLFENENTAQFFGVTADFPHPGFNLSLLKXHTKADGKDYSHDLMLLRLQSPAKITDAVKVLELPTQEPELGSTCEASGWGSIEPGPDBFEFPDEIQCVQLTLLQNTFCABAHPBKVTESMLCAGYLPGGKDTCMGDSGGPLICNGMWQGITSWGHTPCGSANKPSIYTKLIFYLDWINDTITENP
Assay: Determination of inhibition constants (Ki) for tissue kallikrein
Format: biochemical
Settings: for Ki: literature method of Burton and Lowe, read-out: Ki, inhibition constant for tissue kallikrein
Protocol: Determination of Inhibition Constants (Ki) for Tissue Kallikrein
Inhibition constants of compounds 1, 2 and 3 for tissue kallikrein are determined according to the literature method described by Burton and Lowe. ^7 The results are listed in Table 4.

## N=C(N)c1ccc(Nc2nc(Cl)nc(Cl)n2)cc1 [2-(4-amidinophenylamino)-4,6-dichloro-s-triazine, reference compound]
  Ki: > 100 µM

## N=C(N)c1ccc(Nc2nc(Cl)nc(NCc3ccccc3)n2)cc1 [Compound 3]
  Ki: 5.2 µM
Tissue kallikrein inhibition, comparison in words
  inhibition efficacy compared with the original template (1): approximately the same inhibition efficacy as that of the original template (1)
